Laboratory results published in US20060069132A1, “Azolecarboxamide herbicides” (priority 2004, published 2006).

Columns and labels:
redroot pigweed = assay: Test A pre-/postemergence herbicide test; assay type: in vivo, Amaranthus retroflexus
Excerpt: (§1) Seeds of plant species selected from barnyardgrass (Echinochloa crus-galli (L.) Beauv.), downy bromegrass (Bromus tectorum L.), large crabgrass (Digitaria sanguinalis (L.) Scop.), giant foxtail (Setaria faberi Herrm.), morningglory (Ipomoea spp.), redroot pigweed (Amaranthus retroflexus L.) and velvetleaf (Abutilon theophrasti Medik.) were planted into a sandy loam soil and treated preemergence with a directed soil spray using test chemicals formulated in a non-phytotoxic solvent mixture which included a surfactant. At the same time plants selected from these species were also treated postemergence by spraying to runoff with test chemicals formulated.
(§2) Plants ranged in height from 2 to 10 cm and were in the one- to two-leaf stage for the postemergence treatment. Treated plants and untreated controls were maintained in a greenhouse for approximately ten days, after which time all treated plants were compared to untreated controls and visually evaluated for injury. Plant response ratings, summarized in Table A, are based on a 0 to 100 scale where 0 is no effect and 100 is complete control. A dash (-) response means no test results.

velvetleaf [1] = assay: Test A pre-/postemergence herbicide test; assay type: in vivo, Abutilon theophrasti
Excerpt: as §1, §2

large crabgrass [2] = assay: Test A pre-/postemergence herbicide test; assay type: in vivo, Digitaria sanguinalis
Excerpt: as §1, §2

morningglory [3] = assay: Test A pre-/postemergence herbicide test; assay type: in vivo, Ipomoea spp.
Excerpt: as §1, §2

barnyardgrass [4] = assay: Test A pre-/postemergence herbicide test; assay type: in vivo, Echinochloa crus-galli
Excerpt: as §1, §2

giant foxtail [5] = assay: Test A pre-/postemergence herbicide test; assay type: in vivo, Setaria faberi
Excerpt: as §1, §2

cocklebur = assay: Test B pre-/postemergence herbicide test; assay type: in vivo, Xanthium strumarium
Excerpt: (§3) Seeds selected from barnyardgrass (Echinochloa crus-galli (L.) Beauv.), Surinam grass (Urochloa decumbens (Staph) R. D. Webster, previously named Brachiaria decumbens Stapf), cocklebur (Xanthium strumarium L.), corn (Zea mays L.), large crabgrass (Digitaria sanguinalis (L.) Scop.), giant foxtail (Setaria faberi Herim.), lambsquarters (Chenopodium album L.), morningglory (Ipomoea coccinea L.), pigweed (Amaranthus retroflexus L.), rice (Oryza sativa L.) and velvetleaf (Abutilon theophrasti Medik.) were planted and treated preemergence with test chemicals formulated in a non-phytotoxic solvent mixture which included a surfactant.
(§4) At the same time, plants selected from these crop and weed species and also blackgrass (Alopecurus myosuroides Huds.), wheat (Triticum aestivum L.) and wild oat (Avena fatua L.) were treated with postemergence applications of test chemicals formulated in the same manner. Plants ranged in height from 2 to 18 cm (1- to 4-leaf stage) for postemergence treatments. Plant species in the flooded paddy test consisted of rice (Oryza sativa L.), small flower umbrella sedge (Cyperus difformis L.), ducksalad (Heteranthera limosa (Sw.) Willd.) and barnyardgrass (Echinochloa crus-galli (L.) Beauv.) grown to the 2-leaf stage for testing. Treated plants and controls were maintained in a greenhouse for 13 to 15 days, after which time all species were compared to controls and visually evaluated. Plant response ratings, summarized in Table B, are based on a scale of 0 to 100 where 0 is no effect and 100 is complete control. A dash (-) response means no test result.

large crabgrass [6] = assay: Test B pre-/postemergence herbicide test; assay type: in vivo, Digitaria sanguinalis
Excerpt: as §3, §4

rice = assay: Test B flooded paddy test; assay type: in vivo, Oryza sativa; conditions: 125 g ai/ha, scale 0 to 100 (0 no effect, 100 complete control)
Experimental: as §4

[7] = test system: small flower umbrella sedge; assay: Test B flooded paddy test; assay type: in vivo, Cyperus difformis; conditions: 125 g ai/ha, scale 0 to 100 (0 no effect, 100 complete control)
Experimental: as §4

lambsquarters = assay: Test B pre-/postemergence herbicide test; assay type: in vivo, Chenopodium album
Excerpt: as §3, §4

morningglory [8] = assay: Test B pre-/postemergence herbicide test; assay type: in vivo, Ipomoea coccinea
Excerpt: as §3, §4

barnyardgrass [9] = assay: Test B flooded paddy test; assay type: in vivo, Echinochloa crus-galli; conditions: 125 g ai/ha, scale 0 to 100 (0 no effect, 100 complete control)
Experimental: as §4

velvetleaf [10] = assay: Test B pre-/postemergence herbicide test; assay type: in vivo, Abutilon theophrasti
Excerpt: as §3, §4

blackgrass = assay: Test B postemergence herbicide test; assay type: in vivo, Alopecurus myosuroides
Experimental: as §4

wheat = assay: Test B postemergence herbicide test; assay type: in vivo, Triticum aestivum; set-up: key to Wheat plant response rating: 0 = no effect, 100 = complete control
Experimental: as §4

barnyardgrass [11] = assay: Test B pre-/postemergence herbicide test; assay type: in vivo, Echinochloa crus-galli; conditions: Postemergence, scale 0 (no effect) to 100 (complete control)
Excerpt: as §3, §4

corn = assay: Test B pre-/postemergence herbicide test; assay type: in vivo, Zea mays
Excerpt: as §3, §4

wild oat = assay: Test B postemergence herbicide test; assay type: in vivo, Avena fatua
Experimental: as §4

Surinam grass = assay: Test B pre-/postemergence herbicide test; assay type: in vivo, Urochloa decumbens
Excerpt: as §3, §4

pigweed = assay: Test B pre-/postemergence herbicide test; assay type: in vivo, Amaranthus retroflexus
Excerpt: as §3, §4

giant foxtail [12] = assay: Test B pre-/postemergence herbicide test; assay type: in vivo, Setaria faberi
Excerpt: as §3, §4

[13] = Postemergence, 125 g ai/ha, 0 to 100 scale, 0 no effect, 100 complete control
[14] = Postemergence, 500 g ai/ha, 0 to 100 scale, 0 no effect, 100 complete control
[15] = Preemergence, 500 g ai/ha, visual rating, 0 to 100 scale (0 no effect, 100 complete control)
[16] = preemergence, 125 g ai/ha, visual injury, 0 to 100 scale (0 no effect, 100 complete control)
[17] = Postemergence, 250 g ai/ha, 0 to 100 scale, 0 no effect, 100 complete control
[18] = Postemergence, 1000 g ai/ha, 0 to 100 scale, 0 no effect, 100 complete control
[19] = Preemergence, 1000 g ai/ha, visual rating, 0 to 100 scale (0 no effect, 100 complete control)
[20] = preemergence, 250 g ai/ha, visual injury, 0 to 100 scale (0 no effect, 100 complete control)
[21] = Postemergence, 2000 g ai/ha, 0 to 100 scale, 0 no effect, 100 complete control
[22] = Preemergence, 2000 g ai/ha, visual rating, 0 to 100 scale (0 no effect, 100 complete control)
[23] = Postemergence, 500 g ai/ha, scale 0 (no effect) to 100 (complete control)
[24] = postemergence, 125 g ai/ha, scale 0 to 100
[25] = preemergence, 500 g ai/ha, visual injury, 0 to 100 scale (0 no effect, 100 complete control)

SMILES: C=Cn1nc(C(C)(C)C)cc1C(=O)Nc1cccc(C(=O)NCCCl)c1 [Compound 38]
- Pigweed plant response rating (redroot pigweed; [13]): 50
- Plant response rating, Pigweed (redroot pigweed; [14]): 70
- Pigweed plant response rating (redroot pigweed; [15]): 0
- Pigweed plant response rating (redroot pigweed; [16]): 0
- Velvetleaf plant response rating (velvetleaf [1]; [13]): 10
- Plant response rating, Velvetleaf (velvetleaf [1]; [14]): 20
- Velvetleaf plant response rating (velvetleaf [1]; [15]): 5
- Velvetleaf plant response rating (velvetleaf [1]; [16]): 0
- Crabgrass, Large plant response rating (large crabgrass [2]; [13]): 30
- Plant response rating, Crabgrass, Large (large crabgrass [2]; [14]): 60
- Crabgrass, Large plant response rating (large crabgrass [2]; [15]): 10
- Crabgrass, Large plant response rating (large crabgrass [2]; [16]): 0
- Morningglory plant response rating (morningglory [3]; [13]): 0
- Plant response rating, Morningglory (morningglory [3]; [14]): 0
- Morningglory plant response rating (morningglory [3]; [15]): 10
- Morningglory plant response rating (morningglory [3]; [16]): 5
- Barnyardgrass plant response rating (barnyardgrass [4]; [13]): 40
- Plant response rating, Barnyardgrass (barnyardgrass [4]; [14]): 55
- Barnyardgrass plant response rating (barnyardgrass [4]; [15]): 5
- Barnyardgrass plant response rating (barnyardgrass [4]; [16]): 0
- Foxtail, Giant plant response rating (giant foxtail [5]; [13]): 50
- Plant response rating, Foxtail, Giant (giant foxtail [5]; [14]): 60
- Foxtail, Giant plant response rating (giant foxtail [5]; [15]): 0
- Foxtail, Giant plant response rating (giant foxtail [5]; [16]): 0

SMILES: C=Cn1nc(C(C)(C)C)cc1C(=O)Nc1cccc(C(=O)NC2CC2)c1 [Compound 39]
- Pigweed plant response rating (redroot pigweed; [17]): 70
- Plant response rating, Pigweed (redroot pigweed; [18]): 75
- Pigweed plant response rating (redroot pigweed; [19]): 100
- Pigweed plant response rating (redroot pigweed; [20]): 55
- Velvetleaf plant response rating (velvetleaf [1]; [17]): 10
- Plant response rating, Velvetleaf (velvetleaf [1]; [18]): 10
- Velvetleaf plant response rating (velvetleaf [1]; [19]): 20
- Velvetleaf plant response rating (velvetleaf [1]; [20]): 10
- Crabgrass, Large plant response rating (large crabgrass [2]; [17]): 10
- Plant response rating, Crabgrass, Large (large crabgrass [2]; [18]): 35
- Crabgrass, Large plant response rating (large crabgrass [2]; [19]): 85
- Crabgrass, Large plant response rating (large crabgrass [2]; [20]): 35
- Morningglory plant response rating (morningglory [3]; [17]): 0
- Plant response rating, Morningglory (morningglory [3]; [18]): 0
- Morningglory plant response rating (morningglory [3]; [19]): 20
- Morningglory plant response rating (morningglory [3]; [20]): 0
- Barnyardgrass plant response rating (barnyardgrass [4]; [17]): 10
- Plant response rating, Barnyardgrass (barnyardgrass [4]; [18]): 55
- Barnyardgrass plant response rating (barnyardgrass [4]; [19]): 25
- Barnyardgrass plant response rating (barnyardgrass [4]; [20]): 15
- Foxtail, Giant plant response rating (giant foxtail [5]; [17]): 10
- Plant response rating, Foxtail, Giant (giant foxtail [5]; [18]): 45
- Foxtail, Giant plant response rating (giant foxtail [5]; [19]): 40
- Foxtail, Giant plant response rating (giant foxtail [5]; [20]): 20

SMILES: Cn1nc(C(C)(C)C)cc1C(=O)Nc1cccc2c1CCC2=NO [Compound 111]
- Pigweed plant response rating (redroot pigweed; [14]): 5
- Plant response rating, Pigweed (redroot pigweed; [21]): 10
- Pigweed plant response rating (redroot pigweed; [15]): 10
- Pigweed plant response rating (redroot pigweed; [22]): 10
- Velvetleaf plant response rating (velvetleaf [1]; [14]): 0
- Plant response rating, Velvetleaf (velvetleaf [1]; [21]): 0
- Velvetleaf plant response rating (velvetleaf [1]; [15]): 0
- Velvetleaf plant response rating (velvetleaf [1]; [22]): 0
- Crabgrass, Large plant response rating (large crabgrass [2]; [14]): 10
- Plant response rating, Crabgrass, Large (large crabgrass [2]; [21]): 10
- Crabgrass, Large plant response rating (large crabgrass [2]; [15]): 25
- Crabgrass, Large plant response rating (large crabgrass [2]; [22]): 30
- Morningglory plant response rating (morningglory [3]; [14]): 5
- Plant response rating, Morningglory (morningglory [3]; [21]): 0
- Morningglory plant response rating (morningglory [3]; [15]): 0
- Morningglory plant response rating (morningglory [3]; [22]): 0
- Barnyardgrass plant response rating (barnyardgrass [4]; [14]): 0
- Plant response rating, Barnyardgrass (barnyardgrass [4]; [21]): 0
- Barnyardgrass plant response rating (barnyardgrass [4]; [15]): 0
- Barnyardgrass plant response rating (barnyardgrass [4]; [22]): 10
- Foxtail, Giant plant response rating (giant foxtail [5]; [14]): 0
- Plant response rating, Foxtail, Giant (giant foxtail [5]; [21]): 0
- Foxtail, Giant plant response rating (giant foxtail [5]; [15]): 45
- Foxtail, Giant plant response rating (giant foxtail [5]; [22]): 75

SMILES: CCN(CC)C(=O)c1cccc(NC(=O)c2nn(C(C)(C)C)nc2C)n1 [Compound 440]
- Cocklebur plant response rating (cocklebur; [23]): 0
- Cocklebur plant response rating (cocklebur; [24]): 0
- Crabgrass, Large plant response rating (large crabgrass [6]; [23]): 10
- Crabgrass, Large plant response rating (large crabgrass [6]; [24]): 0
- Rice plant response rating (rice): 0
- Sedge, Umbrella plant response rating [7]: 0
- Lambsquarters plant response rating (lambsquarters; [23]): 10
- Lambsquarters plant response rating (lambsquarters; [24]): 0
- Morningglory plant response rating (morningglory [8]; [23]): 20
- Morningglory plant response rating (morningglory [8]; [24]): 0
- Barnyardgrass plant response rating (barnyardgrass [9]): 0
- Velvetleaf plant response rating (velvetleaf [10]; [23]): 0
- Velvetleaf plant response rating (velvetleaf [10]; [24]): 0
- Blackgrass plant response rating (blackgrass; [23]): 20
- Blackgrass plant response rating (blackgrass; [24]): 20
- Wheat plant response rating (wheat; 500 g ai/ha, scale 0 to 100, 0 no effect, 100 complete control, preemergence): 0
- Wheat plant response rating (wheat; [23]): 0
- Wheat plant response rating (wheat; [24]): 0
- Barnyardgrass plant response rating (barnyardgrass [11]; 125 g ai/ha): 0
- Barnyardgrass plant response rating (barnyardgrass [11]; 500 g ai/ha): 0
- Corn plant response rating (corn; [23]): 20
- Corn plant response rating (corn; [24]): 0
- Oat, Wild plant response rating (wild oat; [23]): 30
- Oat, Wild plant response rating (wild oat; [24]): 20
- Surinam Grass plant response rating (Surinam grass; [23]): 10
- Surinam Grass plant response rating (Surinam grass; [24]): 0
- Pigweed plant response rating (pigweed; [23]): 10
- Pigweed plant response rating (pigweed; [24]): 0
- Foxtail, Giant plant response rating (giant foxtail [12]; [23]): 0
- Foxtail, Giant plant response rating (giant foxtail [12]; [24]): 0

SMILES: CCc1nn(C(C)(C)C)cc1C(=S)Nc1cc(C(=S)N(C)C)ccc1F [Compound 453]
- Pigweed plant response rating (redroot pigweed; [13]): 10
- Pigweed plant response rating (redroot pigweed; [14]): 20
- Pigweed plant response rating (redroot pigweed; [16]): 10
- Pigweed plant response rating (redroot pigweed; [25]): 10
- Velvetleaf plant response rating (velvetleaf [1]; [13]): 5
- Velvetleaf plant response rating (velvetleaf [1]; [14]): 10
- Velvetleaf plant response rating (velvetleaf [1]; [16]): 0
- Velvetleaf plant response rating (velvetleaf [1]; [25]): 0
- Crabgrass, Large plant response rating (large crabgrass [2]; [13]): 10
- Crabgrass, Large plant response rating (large crabgrass [2]; [14]): 10
- Crabgrass, Large plant response rating (large crabgrass [2]; [16]): 10
- Crabgrass, Large plant response rating (large crabgrass [2]; [25]): 15
- Morningglory plant response rating (morningglory [3]; [13]): 10
- Morningglory plant response rating (morningglory [3]; [14]): 10
- Morningglory plant response rating (morningglory [3]; [16]): 0
- Morningglory plant response rating (morningglory [3]; [25]): 0
- Barnyardgrass plant response rating (barnyardgrass [4]; [13]): 10
- Barnyardgrass plant response rating (barnyardgrass [4]; [14]): 15
- Barnyardgrass plant response rating (barnyardgrass [4]; [16]): 20
- Barnyardgrass plant response rating (barnyardgrass [4]; [25]): 45
- Foxtail, Giant plant response rating (giant foxtail [5]; [13]): 10
- Foxtail, Giant plant response rating (giant foxtail [5]; [14]): 10
- Foxtail, Giant plant response rating (giant foxtail [5]; [16]): 0
- Foxtail, Giant plant response rating (giant foxtail [5]; [25]): 0
